The test system of this experiment is lymphoma cell line U937. Nature of the experiment: In vitro survival assay (MTT) for anti-lymphoma effects. It counts as cell-based. Particulars: Homo sapiens, U-937, U937 cells, 48 hours treatment, read-out: IC50 (half inhibition concentration), survival of lymphoma cells. The procedure:
Inhibiting effects of lymphoma cells by cyclohexenone compounds of Antrodia camphorata from example 1 were assessed according to the anticancer-drug screening model of National Cancer Institute (NCI). The compound 4-hydroxy-2,3-dimethoxy-6-methyl-5-(3,7,11-trimethyl-dodeca-2,6,10-trienyl)-cyclohex-2-enone from example 1 was added into the culture media of lymphoma cell line U937 to determine the survival rates. Survival of cell was analyzed using MTT assay. U937 cell line was a human histiocytic lymphoma cell line.
MTT assay is commonly used to analyze cell proliferation, survival rate of viable cells and cytotoxicity. MTT (3[4,5-dimethylthiazol-2-yl]-2,5-diphenyltetrazolium bromide) is a yellow dye which can be converted to water-insoluble purple formazan on the reductive cleavage of its tetrazolium ring by the succinate tetrazolium reductase in mitochondria of cells. The amount of formazan produced is used to detect the number of viable cells and calculate the survival rates.
The U937 cells were cultivated in RPMI 1640 medium supplemented with 10% fetal bovine serum, 10 U/ml of Penicillin and 100 μg/ml of Streptomycin at 37° C., 5% CO2 for 24 hours. […] The absorbances were measured at 570 nm with an ELISA Reader to determine the survival rates.

SMILES strings stand for the structures.

In the case of `COC1=C(OC)C(O)C(C/C=C(\C)CC/C=C(\C)CCC=C(C)C)C(C)C1=O` (stereo not shown) [formula 2, 4-hydroxy-2,3-dimethoxy-6-methyl-5-(3,7,11-trimethyl-dodeca-2,6,10-trienyl)-cyclohex-2-enone], the IC50 stood at 9.71 µg/mL.

Source of the values: patent publication US20130005825A1, “Inhibition of the Survival of Lymphoma by Cyclohexenone Compounds from Antrodia Camphorata” (Golden Biotechnology Corporation, priority 2009, published 2013).
